Where a SMILES comes first, the peptide text is derived from it.
Compound	pKa (basic group)	pKa (acidic group)
O=C(Cc1ccccc1Nc1c(Cl)cccc1Cl)OCCN1CCOCC1	7.52	
Oc1ccc(Cl)cc1C[NH+]1CCCCC1		8.14
Cn1nc(-c2ccccc2)cc1O		10.9
C[n+]1ccc(NN)c2ccccc21	2.61	
COc1cc(OS(C)(=O)=O)ccc1-c1cn2cccnc2n1	3.95	
Nn1cnnc1	2.53	11.8
C[NH+]1C[C@H](C(=O)O)C[C@@]2(O)c3cccc4[nH]cc(c34)C[C@H]12	3.94	
CC1(C)OC(=O)C[C@H]2[C@@H](C(=O)O)[NH2+]C[C@H]21		2.27
Nc1nc2c(ncn2[C@@H]2C=C[C@H](CO)C2)c(O)[nH+]1		3.15
Nc1cc([NH3+])ccc1O	3.05	
Oc1cc[nH+]c(O)c1		1.37
CC(=O)n1ccnc1	3.6	
C[C@@H](N)C(=O)N1CCC[C@H]1C(=O)[O-]	8.38	
CC[NH+](CC)CCCCCCCC(C)Nc1c2ccc(Cl)cc2nc2ccc(OC)cc12 (stereo not drawn)	8	
C[C@H]1C[NH2+][C@@H](C)CN1	5.23	
C/N=C(\C)SC	7.71	
NCc1nc2ccccc2[nH]1	8.02	12.8
CC(C)N(C)/C=N/c1ccc(-c2c[nH]cn2)cc1	8.72	
O=C([O-])c1cc(-c2ccccc2)nnc1NCC[NH+]1CCOCC1	3.33	
CCN(C)NC	6.85	
Cc1ccc2cccnc2c1	5.25	
COc1ccc(-c2nnn[nH]2)cc1		4.23
CN(C)CCCN(C)C	9.8	

Compound	pKa (basic group)	pKa (acidic group)
CC[C@@H]1OC(=O)[C@@H](C)[C@H](O)[C@@H](C)[C@H](O[C@H]2O[C@@H](C)C[C@@H]([N+](C)(C)O)[C@@H]2O)[C@]2(C)C[C@H](C)C3(O[C@]1(C)C=C3C)O2		4.3
c1ccc(N=P(c2ccccc2)(c2ccccc2)c2ccccc2)cc1	-0.92	
[NH3+]CCCCCCCC(=O)O		4.5
O=c1oc2cc(O)ccc2cc1-c1ccccc1		7.8
CCN(CC)CC(O)CN(CC)CC	9.8	
Cc1nc(C)c(C)nc1C	3.36	
C=C(C)/C=C(\O)C=C(C)C		10.8
C[C@@H]1CC[C@H](C)[C@H]1C(=O)O		4.69
c1cnc2nc[nH]c2c1	3.95	11.1
O=C(NO)C1CCCCC1		9.87
Nc1ccc(-c2ncc(-c3ccc(Cl)cc3)o2)cc1	2.87	
CC(C)O		16.1
Cc1cc(CO)c(C)c(C)n1	7.3	
CN(C)C(=O)n1nc(C(C)(C)C)nc1SCC(=O)O		3.49
CC/N=c1\sc(-c2ccccc2)nn1CC	6.7	
COc1ccc(C(=O)S)cc1	-4.9	2.79
Nc1ccc(N)cc1	6.16	
COc1csc(C(=O)O)c1		3.41
Cc1nc2ccccc2[nH+]c1O		0.48
Cc1ccc([Se]O)c([N+](=O)[O-])c1		10.7
O=c1oc2c(O)c(O)cc3c(=O)oc4c(O)c(O)cc1c4c23		6.59
c1ccc(-c2cc[nH+]cc2)nc1	1.19	
COc1cc(C#N)cc(C(=O)N[C@@H]2C[C@H]3CC[C@@H](C2)N3Cc2ccccc2)c1OC	8.7	

Compound	pKa (basic group)	pKa (acidic group)
Clc1ccnc(-c2ccccn2)c1	3.8	
c1ccc(-n2cccn2)[nH+]c1	-4.8	
Oc1c(Br)cccc1Br		6.6
NCCc1ccc([N+](=O)[O-])cc1	9.42	
C=C/C(C)=C/[C@@H](C)C(=O)C[C@@H](O)CC1CC(=O)NC(=O)C1		11.2
C1CCc2nnc3c(c2CC1)CCCC3	6.03	
Cc1cccc([NH3+])c1C(=O)O		3.2
CCN(CC)CCOC(=O)c1ccccc1	8.9	
CCCN(C)C	9.62	
O=C(O)c1coc2ccccc12		4.18
Nc1ccc(/N=N/c2ccccc2)cc1	2.82	
CNc1ccccn1	7.13	
Oc1ccccc1F		8.81
CCOC(=O)C1CC2CCN1CC2 (stereo not drawn)	8.8	
NC(=O)/C(=N\O)c1ccccc1		10.1
COc1cccc(C(=O)N[C@H]2C[C@H]3CC[C@@H](C2)N3Cc2ccccc2)c1OC	8.91	
[NH3+][C@@H](Cc1nc(I)[nH]c1I)C(=O)[O-]	2.72	8.18
O=C(O)c1c(Br)cccc1[N+](=O)[O-]		1.37
CCOc1ccc2nc(/C=C/c3ccccc3)cc(N)c2c1	9.5	
NC(=O)[C@@H](N)CSSC[C@H](N)C(N)=O		6.41
Cc1ccnc(-c2cc(C)ccn2)c1	5.32	
Cc1cc(Cl)ccc1O		9.6
OC(CS)CS		9.17

Compound	pKa (basic group)	pKa (acidic group)
Nc1ccccc1B(O)O	4.58	9.23
NC(=O)[C@@H](N)Cc1ccccc1		7.26
O=c1c2[nH]cnc2ncn1O		5.66
Nc1cccc2[nH]c(Cc3ccccc3)nc12	8.6	
O=C(O)c1ccc(F)cc1		4.16
CCC(CC(C)C)OO (stereo not drawn)		12.8
NC(=O)CC(=O)O		3.61
CC1c2cc(O)ccc2CC1CC(=O)O (stereo not drawn)		5.3
CN(CC[NH+](C)C)CC[NH+](C)C	2.57	
CC/C=C/CC(=O)N[C@H]1C(=O)N2[C@H]1SC(C)(C)[C@H]2C(=O)O		2.84
C[C@H](N)Cc1ccc(O)cc1	9.3	
Oc1ccc(O)[nH+]n1		-2.2
[NH3+]CCC(=O)N[C@@H](Cc1c[nH]cn1)C(=O)[O-]	6.89	
COc1ccc([Se]O)c([N+](=O)[O-])c1		10.7
CN(C)c1nc2c(o1)CCCC2	6.16	
O=C(O)[C@H](P)CC[C@H](P)C(=O)O		3.54
C[n+]1cc(O)ccn1		1.74
CC(C)[C@H]1CN[C@H](C(=O)[O-])[C@H]1CC(=O)[O-]	10.6	
[NH3+]CC#CC#CCCC(=O)O		4.05
NNC(=O)[C@@H](N)Cc1ccccc1	7.06	
Oc1ccc(Nc2ccc(O)cc2)cc1		9.44
O=S(O)CCCc1ccccc1		2.05
O=[N+]([O-])c1cccc(NS(=O)(=O)c2ccccc2)c1		6.91

Compound	pKa (basic group)	pKa (acidic group)
Cc1ccc(C(=N)c2ccccc2)c(C)c1	6.79	
CC(=O)CC(=S)Nc1cccc(C)c1		7.56
O=C1CN2CCC1CC2	7.27	
O=C(O)C[Se]c1ccccc1		3.75
O=C(CN1CCOCC1)c1ccccc1	5.97	
N#Cc1ccc2c(c1)C([P+](c1ccccc1)(c1ccccc1)c1ccccc1)c1ccccc1-2 (stereo not drawn)		5.81
C/C(C#[N+][O-])=N\O		8.8
O=C(O)CS/C=C/c1ccccc1		3.5
C/N=c1/sc2c(n1C)CCCC2	10	
O=C(O)CCCC1CCCCC1		4.95
Nc1ccc2c(c1)-c1ccccc1C2	4.68	
Cc1cc(-c2ccccc2)nnc1NCC[NH+]1CCOCC1	4	
NNC(=O)CS		8.05
CCOc1ccc(C(=O)NC(=S)N(CC)CC)cc1		8.83
O=C1CCC(Cl)C1=O (stereo not drawn)		7.05
O=C(O)C(c1ccc(-c2ccccc2)cc1)C1(O)CCCCC1 (stereo not drawn)		3.59
CC/C([N+](=O)[O-])=[N+](/[O-])O		4.1
O=C([O-])CN(CC(=O)[O-])Cc1cc([N+](=O)[O-])ccc1[O-]	10.2	
CC/C(C)=C\C(=O)O		5.15
CCN(CC)CCCC(C)Nc1ccnc2cc(Br)ccc12 (stereo not drawn)	10.2	
NC(N)=S	-0.96	
CCc1cc(Cl)c(O)c(C(=O)NC[C@H]2CCC[NH+]2CC)c1OC		6.91
CCCCC1(CC)C(=O)[N-]C(=S)NC1=O		12.1

Compound	pKa (basic group)	pKa (acidic group)
CN1C2CCC(CC2)N1C	7.14	
CCN(CC)CCOCCN(CC)CC	10.1	
NC1(C(=O)[O-])CCCC1	10.1	
O=C1COC(=O)C1Cl (stereo not drawn)		2.13
CCc1c(C)c[nH]c1C	3.19	
COC(=O)c1ccc2ccccc2n1	1.75	
C=O	1.15	
CC(C)NCCCCCC[NH2+]C(C)C	10.9	
CCN(CC)/N=C(\N)CC[Si](C)(C)C	10.7	
CSc1nccc(C)n1	1.95	
CCC#CC#CC(=O)O		1.91
CN(C)CCNC(=O)/C=N/[O-]	9.43	
CC(CN1CCCCC1)C(C#N)(c1ccccc1)c1ccccc1 (stereo not drawn)	7.54	
CN1CCC[C@H]1c1cccnc1	7.85	
Nc1nc([S-])[nH+]c([O-])c1C1=CCCCC1	7.11	
CNC(N)=O	0.8	
CC(=O)OCC1CC2CCN1CC2 (stereo not drawn)	9.88	
CC[NH+](CC)CCNc1ccnc2ccccc12	8	
Cn1ccc(=S)cc1	1.36	
CCO/C([O-])=N/c1ncnc2nc[nH]c12		12.2
Nc1cc[nH]n1	4.11	
S=C(/N=N/c1ccc2ccccc2c1)NNc1ccc2ccccc2c1		12.7
Cc1cc(N)ccc1CN	9.77	

Compound	pKa (basic group)	pKa (acidic group)
Cc1cc(C(c2ccc(N)cc2)c2ccc(N)cc2)ccc1N	4.9	
Cc1nccc2c1[nH]c1ccccc12	6.55	14.5
c1ccc2c(c1)ccc1nc[nH]c12	5.28	12.5
CN(C)[C@H]1CCCC[C@@H]1O	10.4	
NC(=O)N/N=C/c1ncnc2nc[nH]c12	2.1	9.1
Nc1nc([S-])c2[nH]cnc2n1	8.2	11.6
CN(CC[NH3+])CC[NH+](C)C	3.19	
Nc1ccc(S(=O)(=O)Nc2ccncn2)cc1	1.3	6.17
Oc1cccc2cccnc12	5.02	9.77
FC(F)(F)c1cc(-c2ccccc2)nnc1NCC[NH+]1CCOCC1	1.44	
CCN(CCO)c1ccc(N)cc1	7.12	
CN(C)CC(C)(C)C	9.75	
O=C1COC=C([O-])C1=O		10.5
O=C([O-])c1ccc([N+](=O)[O-])cc1O		10.3
CN(C)Cc1cc(/N=N/c2ccccc2)ccc1[O-]	10.2	
Cc1ccno1	2.3	
NC(=O)C[C@H](NC(=O)[C@@H](N)CS)C(=O)O (H-Cys-Asn-OH)	7.05	
CC(O)CN(C)CC(C)O (stereo not drawn)	8.7	
CC(C)CCNCCC(C)C	10.9	
C=CCN(CC=C)CCC[NH+](CC=C)CC=C	6.96	
Oc1c(I)cc(I)c2cccnc12	2.7	8
O=[N+]([O-])c1ccc(NS(=O)(=O)c2ccccc2)cc1		6.63
